{"source": "patent US20090068290A1", "about": "“BIFEPRUNOX DOSES FOR TREATING SCHIZOPHRENIA” (priority 2006, published 2009)", "key": {"[1]": {"system": "adult subjects with schizophrenia", "test": "CGI Severity of Illness score, Clinical Study Two", "assay_type": "in vivo, human", "details": "LOCF; for Change from Baseline in CGI Severity of Illness Score, Mean (SD) / Change from Baseline in CGI Severity of Illness Score, Median: Risperidone 6 mg, ITT population", "procedure": "Rating scale assessments were performed weekly, except for week 5, to measure the change from baseline to endpoint of the PANSS total score. Other assessments included: PANSS positive symptom subscale score, PANSS negative symptom subscale score, PANSS general pschopathology subscale score, BPRS total score, BPRS psychosis score, the CGI-S score, the CGI-I score, responder rates based on the PANSS total score, and the Calgary Depression Scale for Schizophrenia (CDSS). […]\nSubjects who completed this study had the option to continue in the long-term. […] Risperidone-treated subjects were titrated from 2 mg to 6 mg daily over a three-day period and were subsequently maintained at 6 mg/day for the remainder of the treatment period. […] Blood samples were also obtained at Screening/Baseline, Week 3, and Week 6 for clinical laboratory assessments."}, "[2]": {"system": "adult subjects with schizophrenia", "test": "PANSS general psychopathology subscale score, Clinical Study One", "assay_type": "in vivo, human", "details": "Risperidone 6 mg, ITT population", "procedure": "(§1) There were five treatment groups in this study. […] Study medication was administered once daily. After Baseline measurements were performed, the titration phase was begun. Bifeprunox treated subjects were titrated up to 5 mg, 10 mg or 20 mg according to a standardized titration schedule (Day 1: 0.125 mg, Day 2: 0.25 mg, Day 3: 0.5 mg, Day 4: 1.0 mg, Day 5: 2.0 mg, Day 6: 5.0 mg, Day 7: 10.0 mg, Day 8: 20 mg). When the assigned dose was reached, subjects were maintained at that dose for the remainder of the six-week treatment period.\n(§2) The change in the Positive and Negative Symptom Scale (PANSS) total score, from baseline to endpoint, was the primary outcome measure. Secondary efficacy measures included: PANSS positive, PANSS negative, PANSS general psychopathology (GPP) score, PANSS-derived Brief Psychiatric Rating Scale (BPRS) score, Clinical Global Impressions-Severity of Illness (CGI-S), CGI-Improvement (CGI-I) scores, and responder rates. Safety and tolerability evaluations included extrapyramidal symptoms (EPS), weight gain, lipid profile, and serum prolactin."}, "[3]": {"system": "adult subjects with schizophrenia", "test": "BPRS psychosis cluster score, Clinical Study One", "assay_type": "in vivo, human", "details": "Risperidone 6 mg, ITT population", "procedure": "as §1"}, "[4]": {"system": "adult subjects with schizophrenia", "test": "CGI Severity of Illness score, Clinical Study One", "assay_type": "in vivo, human", "details": "Risperidone 6 mg, ITT population", "procedure": "as §1, §2"}, "[5]": {"test": "Body weight, Clinical Study Three", "source_text": "To assess the safety and tolerability of bifeprunox using physical examination, weight, waist circumference, vital signs (pulse rate and systolic/diastolic blood pressure [BP], and oral temperature), 12-lead electrocardiogram (ECG), clinical laboratory assessments (hematology, biochemistry including fasting insulin level, fasting glucose, fasting lipid profile, urinalysis, special laboratory assessments for prolactin, IGF-1, IGFBP-3, and thyroid function), need for anticholinergic treatment during double-blind treatment period, concomitant medication use, adverse event (AE) monitoring, and assessments of abnormal movement including the Simpson-Angus Scale (SAS), Barnes Akathisia Scale (BAS), and Abnormal Involuntary Movement Scale (AIMS)."}}, "data": [{"compound": "Cc1nc2n(c(=O)c1CCN1CCC(c3noc4cc(F)ccc34)CC1)CCCC2", "note": "[Risperidone, risperidone, reference compound]", "values": [{"measurement": "Change from Baseline in CGI Severity of Illness Score, Mean (SD)", "setting": "[1]; Week 1", "value": "−0.39 (0.63)"}, {"measurement": "Change from Baseline in CGI Severity of Illness Score, Median", "setting": "[1]; Week 1", "value": 0.0}, {"measurement": "Change from Baseline in CGI Severity of Illness Score, Mean (SD)", "setting": "[1]; Week 2", "value": "−0.73 (0.95)"}, {"measurement": "Change from Baseline in CGI Severity of Illness Score, Median", "setting": "[1]; Week 2", "value": "−1.0"}, {"measurement": "Change from Baseline in CGI Severity of Illness Score, Mean (SD)", "setting": "[1]; Week 3", "value": "−0.94 (1.00)"}, {"measurement": "Change from Baseline in CGI Severity of Illness Score, Median", "setting": "[1]; Week 3", "value": "−1.0"}, {"measurement": "Change from Baseline in CGI Severity of Illness Score, Mean (SD)", "setting": "[1]; Week 4", "value": "−1.02 (1.09)"}, {"measurement": "Change from Baseline in CGI Severity of Illness Score, Median", "setting": "[1]; Week 4", "value": "−1.0"}, {"measurement": "Change from Baseline in CGI Severity of Illness Score, Mean (SD)", "setting": "[1]; Week 6/Endpoint", "value": "−1.06 (1.20)"}, {"measurement": "Change from Baseline in CGI Severity of Illness Score, Median", "setting": "[1]; Week 6/Endpoint", "value": "−1.0"}, {"measurement": "mean change (SD) from Baseline to Endpoint in CGI severity of illness score", "setting": "[1]; risperidone 6 mg, ITT", "value": "−1.06 (1.20)"}, {"measurement": "Change from Baseline in PANSS General Psychopathology Subscale Score, Mean (S.D.)", "setting": "[2]; Endpoint LOCF", "value": "−6.8 (7.8)"}, {"measurement": "Change from Baseline in PANSS General Psychopathology Subscale Score, Median", "setting": "[2]; Endpoint LOCF", "value": "−5"}, {"measurement": "Change from Baseline in PANSS General Psychopathology Subscale Score, Mean (S.D.)", "setting": "[2]; Week 1, LOCF", "value": "−3.4 (5.8)"}, {"measurement": "Change from Baseline in PANSS General Psychopathology Subscale Score, Median", "setting": "[2]; Week 1, LOCF", "value": "−3"}, {"measurement": "Change from Baseline in PANSS General Psychopathology Subscale Score, Mean (S.D.)", "setting": "[2]; Week 2, LOCF", "value": "−5.8 (7.1)"}, {"measurement": "Change from Baseline in PANSS General Psychopathology Subscale Score, Median", "setting": "[2]; Week 2, LOCF", "value": "−6"}, {"measurement": "Change from Baseline in PANSS General Psychopathology Subscale Score, Mean (S.D.)", "setting": "[2]; Week 3, LOCF", "value": "−6.9 (7.3)"}, {"measurement": "Change from Baseline in PANSS General Psychopathology Subscale Score, Median", "setting": "[2]; Week 3, LOCF", "value": "−6"}, {"measurement": "Change from Baseline in PANSS General Psychopathology Subscale Score, Mean (S.D.)", "setting": "[2]; Week 4, LOCF", "value": "−6.3 (7.7)"}, {"measurement": "Change from Baseline in PANSS General Psychopathology Subscale Score, Median", "setting": "[2]; Week 4, LOCF", "value": "−5"}, {"measurement": "Change from Baseline in BPRS Psychosis Cluster Score, Mean (S.D.)", "setting": "[3]; Endpoint LOCF", "value": "−4.1 (3.5)"}, {"measurement": "Change from Baseline in BPRS Psychosis Cluster Score, Median", "setting": "[3]; Endpoint LOCF", "value": "−4"}, {"measurement": "Change from Baseline in BPRS Psychosis Cluster Score, Mean (S.D.)", "setting": "[3]; Week 1, LOCF", "value": "−2.2 (2.7)"}, {"measurement": "Change from Baseline in BPRS Psychosis Cluster Score, Median", "setting": "[3]; Week 1, LOCF", "value": "−2"}, {"measurement": "Change from Baseline in BPRS Psychosis Cluster Score, Mean S.D.", "setting": "[3]; Week 2, LOCF", "value": "−3.6 (3.2)"}, {"measurement": "Change from Baseline in BPRS Psychosis Cluster Score, Median", "setting": "[3]; Week 2, LOCF", "value": "−3"}, {"measurement": "Change from Baseline in BPRS Psychosis Cluster Score, Mean (S.D.)", "setting": "[3]; Week 3, LOCF", "value": "−4.1 (3.4)"}, {"measurement": "Change from Baseline in BPRS Psychosis Cluster Score, Median", "setting": "[3]; Week 3, LOCF", "value": "−4"}, {"measurement": "Change from Baseline in BPRS Psychosis Cluster Score, Mean (S.D.)", "setting": "[3]; Week 4, LOCF", "value": "−3.9 (3.3)"}, {"measurement": "Change from Baseline in BPRS Psychosis Cluster Score, Median", "setting": "[3]; Week 4, LOCF", "value": "−4"}, {"measurement": "Change from Baseline in CGI Severity of Illness Score, Mean (S.D.)", "setting": "[4]; Endpoint LOCF", "value": "−0.76 (0.93)"}, {"measurement": "Change from Baseline in CGI Severity of Illness Score, Median", "setting": "[4]; Endpoint LOCF", "value": 0.0}, {"measurement": "Change from Baseline in CGI Severity of Illness Score, Mean (S.D.)", "setting": "[4]; Week 1, LOCF", "value": "−0.37 (0.68)"}, {"measurement": "Change from Baseline in CGI Severity of Illness Score, Median", "setting": "[4]; Week 1, LOCF", "value": 0.0}, {"measurement": "Change from Baseline in CGI Severity of Illness Score, Mean (S.D.)", "setting": "[4]; Week 2, LOCF", "value": "−0.60 (0.83)"}, {"measurement": "Change from Baseline in CGI Severity of Illness Score, Median", "setting": "[4]; Week 2, LOCF", "value": 0.0}, {"measurement": "Change from Baseline in CGI Severity of Illness Score, Mean (S.D.)", "setting": "[4]; Week 3, LOCF", "value": "−0.70 (0.81)"}, {"measurement": "Change from Baseline in CGI Severity of Illness Score, Median", "setting": "[4]; Week 3, LOCF", "value": 0.0}, {"measurement": "Change from Baseline in CGI Severity of Illness Score, Mean (S.D.)", "setting": "[4]; Week 4, LOCF", "value": "−0.69 (0.85)"}, {"measurement": "Change from Baseline in CGI Severity of Illness Score, Median", "setting": "[4]; Week 4, LOCF", "value": 0.0}]}, {"compound": "Cc1cc2c(s1)Nc1ccccc1N=C2N1CCN(C)CC1", "note": "[Olanzapine, olanzapine, reference compound]", "values": [{"measurement": "Weight, Baseline, Max", "setting": "[5]; Olanzapine 15 mg", "value": 300, "unit": "lbs"}, {"measurement": "Weight, Baseline, Mean (SD)", "setting": "[5]; Olanzapine 15 mg", "value": "175.2 (52.7) lbs"}, {"measurement": "Weight, Baseline, Min", "setting": "[5]; Olanzapine 15 mg", "value": 68, "unit": "lbs"}, {"measurement": "Weight, Change from Baseline at Endpoint, Max", "setting": "[5]; Olanzapine 15 mg", "value": 31, "unit": "lbs"}, {"measurement": "Weight, Change from Baseline at Endpoint, Mean (SD)", "setting": "[5]; Olanzapine 15 mg", "value": "5.2 (6.9) lbs"}, {"measurement": "Weight, Change from Baseline at Endpoint, Median", "setting": "[5]; Olanzapine 15 mg", "value": 4, "unit": "lbs"}, {"measurement": "Weight, Change from Baseline at Endpoint, Min", "setting": "[5]; Olanzapine 15 mg", "value": "−7", "unit": "lbs"}, {"measurement": "Weight, Change from Baseline at Week 6, Max", "setting": "[5]; Olanzapine 15 mg", "value": 31, "unit": "lbs"}, {"measurement": "Weight, Change from Baseline at Week 6, Mean (SD)", "setting": "[5]; Olanzapine 15 mg", "value": "5.9 (7.3) lbs"}, {"measurement": "Weight, Change from Baseline at Week 6, Median", "setting": "[5]; Olanzapine 15 mg", "value": 5, "unit": "lbs"}, {"measurement": "Weight, Change from Baseline at Week 6, Min", "setting": "[5]; Olanzapine 15 mg", "value": "−7", "unit": "lbs"}, {"measurement": "mean body weight (in words)", "setting": "[5]; olanzapine 15 mg, 6 weeks", "value": "an increase in weight"}]}]}
